One experiment has as its system TNFα. The experiment can be described thus: Inhibition of release of TNFα from human monocytes stimulated by LPS (TNF processing inhibition). In kind it is cell-based. Particulars: Monocyte, read-out: TNF processing inhibition.
The target of another experiment is T1, CD23 proteinase (Homo sapiens, UniProt O14672).
T1 construct: Plasma membranes from RPMI 8866 cells, a human Epstein-Barr virus transformed B-cell line; endogenous in cells; host or cells: RPMI 8866 (human EBV-transformed B-cell line), enriched plasma membranes
T1 sequence (O14672 214-748): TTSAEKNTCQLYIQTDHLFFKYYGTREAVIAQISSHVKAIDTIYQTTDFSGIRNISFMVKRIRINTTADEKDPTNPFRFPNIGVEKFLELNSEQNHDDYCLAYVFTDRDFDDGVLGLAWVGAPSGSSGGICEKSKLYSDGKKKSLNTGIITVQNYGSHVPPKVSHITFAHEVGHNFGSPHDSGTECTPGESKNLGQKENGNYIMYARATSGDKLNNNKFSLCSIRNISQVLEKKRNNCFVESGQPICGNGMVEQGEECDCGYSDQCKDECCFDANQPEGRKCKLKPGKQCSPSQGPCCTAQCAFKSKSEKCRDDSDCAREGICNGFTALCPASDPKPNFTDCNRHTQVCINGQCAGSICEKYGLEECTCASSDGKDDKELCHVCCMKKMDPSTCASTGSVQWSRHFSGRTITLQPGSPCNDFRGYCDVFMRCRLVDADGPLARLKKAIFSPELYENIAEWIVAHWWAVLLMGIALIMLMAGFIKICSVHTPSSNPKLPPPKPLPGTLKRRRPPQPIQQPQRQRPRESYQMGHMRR
The experiment can be described thus: RPMI 8866 cell membrane CD23 cleavage activity assay (CD23 proteinase inhibition). It is filed as biochemical. Conditions: RPMI 8866 cell membranes.

In experiment [1] the target is T2, human recombinant collagenase (Homo sapiens, UniProt P03956).
T2 construct: made in house; host or cells: E. coli
T2 sequence (P03956 100-469): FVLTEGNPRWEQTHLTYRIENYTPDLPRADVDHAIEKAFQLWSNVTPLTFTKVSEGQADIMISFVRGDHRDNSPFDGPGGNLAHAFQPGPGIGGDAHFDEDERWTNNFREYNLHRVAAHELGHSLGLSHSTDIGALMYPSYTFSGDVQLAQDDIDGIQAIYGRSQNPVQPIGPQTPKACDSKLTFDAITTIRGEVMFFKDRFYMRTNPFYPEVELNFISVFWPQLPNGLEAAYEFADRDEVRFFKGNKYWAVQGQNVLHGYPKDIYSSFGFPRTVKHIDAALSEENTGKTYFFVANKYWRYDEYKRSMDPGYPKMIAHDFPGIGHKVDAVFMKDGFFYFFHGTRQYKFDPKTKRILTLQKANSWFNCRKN
Briefly: Collagenase Inhibition Assay. In kind it is biochemical.
Description: Collagenase Inhibition Assay:
The collagen was acetylated ^3 H type 1 bovine collagen prepared by the method of Cawston and Murphy (methods in Enzymology 80, 711,1981) The samples were centrifuged to sediment undigested collagen and an aliquot of the radioactive supernatant removed for assay on a scintillation counter as a measure of hydrolysis.

SMILES strings stand for the structures. Read-outs that look alike come from different tables or passages of the source.

Protocol for CD23 proteinase: Procedure 1: The ability of test compounds to inhibit the release of soluble CD23 was investigated by use of the following procedure.
Cells resuspended in homogenization buffer (20 mM HEPES pH 7.4, 150 mM NaCl, 1.5 mM MgCl2, 1 mM DTI) are broken by N2 cavitation in a Parr bomb and the plasma membrane fraction mixed with other membranes is recovered by centrifugation at 10,000×g. The light pellet is resuspended in 0.2 M potassium phosphate, pH 7.2 using 2 ml per 1-3 g wet cells and the nuclear pellet is discarded. […] The phases are separated by brief centrifugation at 1000×g and the PEG (upper) phase is collected, diluted 3-5 fold with 20 mM potassium phosphate buffer pH 7.4, and centrifuged at 100,000×g to recover membranes in that phase. The pellet is resuspended in phosphate-buffered saline and consists of 3-4 fold enriched plasma membranes as well as some other cell membranes (e.g. lysosomes, Golgi). The membranes are aliquoted and stored at -80° C.
The amount of soluble CD23 made by 0.5 ug membrane protein in a total volume of 50 ul phosphate-buffered saline is measured by EIA and compared to the amount made in the presence of various concentrations of inhibitors. Inhibitors are prepared in solutions of water or dimethylsulfoxide (DMSO) and the final DMSO concentration is not more than 2%.
Protocol for TNFα: Procedure 3: The ability of test compounds to inhibit TNF release was investigated using the following procedure. Assay for inhibition of release of TNFα from human monocytes stimulated by lipopolysaccharide (LPS) endotoxin. […] The cell suspension is aliquoted in 24 well plates, 1 ml per well. Compounds to be tested are dissolved in neat dimethyl sulfoxide (DMSO) and added to culture with the final DMSO concentration at 0.1%. Compounds are added to cells in triplicate wells. TNFα release is stimulated by addition of LPS to the cells at a final concentration of 200 ng/ml. Appropriate control cultures are set up in triplicates also. The plates are incubated for 18-20 hrs at 37° C., 5% CO2, then centrifuged at 1000×g for 5 min. A specific ELISA for human TNFα (SmithKline Beecham) is used to measure TNF levels in the cell-free culture supernatants.

As to `CNC(=O)[C@H](Cc1ccccc1)NC(=O)[C@H](CC(C)C)[C@H](CSc1cccs1)C(=O)NO` [Comparative Example, reference compound], in the experiment on TNFα (Homo sapiens), the inhibition – broadly, the change of the read-out against control, counted positive when it falls – at 1 µM was found to be 76.4 ± 0.9%.

Molecule `CNC(=O)[C@@H](NC(=O)[C@H](Cc1ccc2ccccc2c1)[C@H](O)C(=O)NO)C(C)(C)C` [Example 1, N'-[3S-Hydroxy-4-(N-hydroxyamino)-2R-(2-naphthylmethyl)succinyl]-S-tert-leucine-N-methylamide] came in with an inhibition at 1 µM against CD23 proteinase (at 1 uM) of 88%. Besides, the IC50 – broadly, the point on the concentration scale where inhibition reaches its midpoint – in experiment [1] is more than 10 µM.

Molecule `CNC(=O)[C@H](Cc1ccccc1)NC(=O)[C@H](Cc1ccc2ccccc2c1)[C@H](O)C(=O)NO` [Example 2, N'-[3S-Hydroxy-4-(N-hydroxyamino)-2R-(2-naphthylmethyl)succinyl]-S-phenylalanine-N-methylamide] registered an inhibition at 2 µM on CD23 proteinase (at 2 uM) of 90%. The half-inhibitory concentration (IC50) in experiment [1] (37° C., 18 h, acetylated 3H type 1 bovine collagen, read-out: Collagenase inhibition IC50) amounted to 8.6 µM. The inhibition at 1 µM in the experiment on TNFα (at 1 uM, human monocytes, LPS 200 ng/ml, 18-20 hrs) turned out to be 45%.

The values above are taken from patent publication US6235753A, “Inhibitors of the production of S-CD23 and the secretion of TNF” (priority 1996, dated 2001).
